Measurements published in a melting point compilation (Tetko et al.; mined from patent text by program, amines drawn as free bases though some values may be those of a salt).

SMILES	melting point
O=C(Nc1ccc2ccc(Oc3ccccc3)nc2n1)c1cccc(Br)c1	194 °C
CC(C)(C)c1cc(CCc2ccccc2NC(=O)NCCc2ccc(Cl)cc2)cc(C(C)(C)C)c1O	173 to 174 °C
Cc1c(-c2ccccc2)on(CC(O)CCl)c1=O (stereo unspecified)	82 to 83 °C
COC(=O)N(C(=O)c1ccc(C2=NOC(c3cc(Cl)cc(Cl)c3)(C(F)(F)F)C2)cc1C)c1cncnc1 (stereo unspecified)	72 to 76 °C
O=C1N[C@H](C(=O)NCCCCO)CS1	81 to 83 °C
Cc1nc[nH]c1C(=O)OC(C)C	188 to 190 °C
CC(=O)OC(CN(Cc1ccccc1)Cc1ccccc1)c1ccc2c(c1)CCN2C(C)=O (stereo unspecified)	91 to 92 °C
CC(C)(C)OC(=O)Nc1ccc(-c2ccc(-c3ccccc3)cc2)cc1NC(=O)CC(=O)c1cccc(C#N)c1	214 to 216 °C
CC(=O)Nc1nc2c(s1)-c1nc(-c3cc(C#CC4CCNCC4)ccc3Cl)ncc1CC2	162 °C
COc1ccc(C#N)cc1C=O	115 to 118 °C
CCCCOc1cc(/C=C(\OCC)C(=O)O)ccc1OCCc1ccc(NS(=O)(=O)CCCC)cc1	164 °C
O=C(Nc1ccc2cc(CN3CCCC3)cnc2c1)c1ccc(-c2ccccc2)cc1	192 to 194 °C
COC1(O)C=C(O)C(C(O)C(=O)c2ccccc2)=CC1 (stereo unspecified)	192 to 193 °C
OC1CCCc2nc3sccc3c(NCc3ccccc3)c21 (stereo unspecified)	180 to 181 °C
NC(=NCC(F)(F)F)Nc1nc(CCCCNc2ncccn2)cs1	173 to 175 °C
COC(=O)Nc1c(Cl)ccc(Br)c1F	107 to 112 °C
O=C(O)Cc1ccc(NC(=O)CCCCCNC(=O)OCc2ccccc2)cc1	136 to 138 °C
C/C(=C\CC1SC(=O)NC1=O)c1cccc(OCc2nc(-c3ccc(OC(F)(F)F)cc3)oc2C)c1 (stereo unspecified)	50 to 51 °C
COc1cc(C(F)(F)F)nn1-c1ccc(NC(=O)c2ccncc2F)cc1	160 to 161 °C
Nc1nc2c(C(CC(=O)O)C3CCCCC3)c[nH]c2c(=O)[nH]1 (stereo unspecified)	> 300 °C
CC1(C)Oc2ccc(C3=NNC(=O)CC3)cc2NC1=O	251 to 254 °C
Cc1nc(-c2ccccc2)c(C)c(O)c1C(=O)Nc1nccs1	266 °C
COCC1OC(n2cnc3c(N)nc(F)nc32)C(O)C1O (stereo unspecified)	231 to 233 °C
O=C(O)CCC(=O)c1ccc(-c2ccc(Cl)s2)cc1	212 to 213 °C
O=c1[nH]c(=O)n2c(c1-c1ccccc1)SC=CC2	286 to 290 °C
Nc1nc(NCC2CC2)c2ncn(C3C=CC(CO)C3)c2n1 (stereo unspecified)	130 to 131 °C

SMILES	melting point
O=C1c2ccccc2S(=O)(=O)N1c1c(F)c(F)nc(F)c1F	164 to 165 °C
COc1ccc(C(=O)c2c(-c3ccc(OC)cc3)sc3ccccc23)cc1	124 to 126 °C
O=Cc1ccc(Sc2nc3cc(F)c(F)cc3[nH]2)o1	133 °C
COc1ccc(S(=O)(=O)Nc2cccc3cn[nH]c23)cc1	155 to 156 °C
ON=C(Cc1ccc(Cl)cc1)c1ccc(Cl)cc1Cl	91 °C
CCOC(=O)C(C#N)(CCCN(C)CCc1ccc(C(=O)OC)cc1)c1ccc(OC)c(OC)c1 (stereo unspecified)	75 to 77 °C
CCN(CC)CCSC1=C(C#N)C(c2cccnc2)(c2ccc(OC)c(OC)c2)C(=O)N1 (stereo unspecified)	133 to 135 °C
CC(=O)N1CCC(C(=NNc2ccccc2)c2ccc(Br)cc2F)CC1	174 to 176 °C
CCn1cc(C(=O)O)c(=O)c2cc(F)c(N3CCSCC3)c(F)c21	> 300 °C
CCc1cnc2c(NC(=O)c3c(Cl)cccc3Cl)cccc2c1CCC(=O)O	236 to 237 °C
CC1=Nc2ccccc2CC(c2ccncc2)N1C (stereo unspecified)	159 to 161 °C
CCN1CCN(Cc2nc(-c3ccc4c(c3)Nc3ccccc3S4)cs2)CC1	182 to 184 °C
O=C1CCCn2c(=O)n(Cc3ccccc3)c3cccc1c32	135 °C
O=C(N1CCOCC1)n1nc2c(Cl)c(Cl)c(Cl)c(Cl)c2n1	194 °C
O=C1N(CC2CN(Cc3ccccc3)CCO2)c2ccccc2C12COc1cc3c(cc12)OCCO3 (stereo unspecified)	88 to 100 °C
COC(=O)c1sc2c(c1OC(C)C)CN(C(=O)OC(C)(C)C)CC2	76 to 81 °C
CCOC(=O)CCCC1(CCCC(=O)OCC)CC(=O)c2ccc(O)cc2O1	108 to 110 °C
CSc1nnc2n1C=Cc1cc(C)ccc1C2	161 to 162 °C
CCN1N=C(c2ccc(OC)c(OC)c2)[C@@H]2CCCC[C@@H]2C1=O (relative stereo)	105 to 106 °C
CSc1cc2c(cc1C(F)(F)F)N(C(=O)Nc1ccc(C(=O)O)cc1)CC2	> 200 °C
CC(C)(C)c1cc(C(=O)c2cccs2)cc(CN2CCCC2)c1O	95 to 97 °C
COc1ccc(C(=O)c2nnc(-c3ccccc3)o2)cc1	152 °C
NC(=O)c1c(Cl)c(-c2ccccc2)n2c1CN(C(=O)N1CCOCC1)CC2	219 to 220 °C
COC(=O)c1c(C(=O)OC)c(-c2ccccc2)c(C(=O)O)c(C(=O)O)c1-c1ccccc1	196 to 198 °C
CCCCCCCNC(=O)N(C)c1cccc(-c2ccc(CCC(=O)O)cc2OC)c1	100 to 101 °C
NC1=NC2(O)c3ccc(Cl)cc3CC2(F)S1 (stereo unspecified)	159 °C

SMILES	melting point
COc1ccc(-n2cnc3ccc(-c4nnc(SCc5cccc(F)c5)o4)cc32)cc1	155 to 156 °C
CC(=O)Nc1ccc(OCC(O)CN2CCC(NC(=O)c3ccccc3)CC2)cc1 (stereo unspecified)	226 to 228 °C
CCOC(=O)c1cc2c(nc(C)n2C)c(O)c1CCC(=O)c1ccccc1	205 to 206 °C
CCO/C(=N/OC(C)=O)C1Cc2cc(C(=O)CC)c(O)c(Cl)c2O1 (stereo unspecified)	140 to 142 °C
CCN(C(=O)Nc1ccc(OC(F)(F)F)cc1)C1Cc2ccc(SC(C)(C)C(=O)O)cc2C1 (stereo unspecified)	73 to 77 °C
CCOC(=O)c1cc2n(n1)CCOC2	63 °C
CC(=O)c1cc(NC(=O)NCCCC(C)CNC(=O)Nc2cc(C(C)=O)cc(C(C)=O)c2)cc(C(C)=O)c1 (stereo unspecified)	128 °C
C=CCOc1ccccc1-c1ccc(C(N)=O)c(=O)[nH]1	210 to 212 °C
Cc1ccc(-n2nc3c4cc(/C=C/C(=O)OCc5ccccc5)ccc4[nH]c(=O)n3c2=O)cc1	242 °C
COC(=O)C(O)C(O)C1CC1 (stereo unspecified)	54 to 57 °C
O=C1NC(=O)C(=Cc2ccc(-c3cc(C4CCCCC4)c4oc(C(Cl)(Cl)Cl)nc4c3)nc2)S1	253 °C
CCCNC(=O)c1cccc(-c2nc(=O)c3ccccc3s2)n1	180 to 181 °C
CN1C(=O)c2ccccc2C(C(=O)O)C1c1ccc(OCc2ccccc2)c(OCc2ccccc2)c1 (stereo unspecified)	170 to 172 °C
CCCCS(=O)(=O)On1nnc2ccc(Cl)cc21	72 to 74 °C
COc1cc2c(cc1OC)-c1cc(Nc3c(C)cccc3C)nc(=O)n1CC2	297 to 299 °C
CC(=O)Nc1c([N+](=O)[O-])cc(Br)c2c1CCN(C)C2	190 to 192 °C
C=C(c1ccc(F)cc1)c1ccccc1Cl	73 to 74 °C
O=C1CCNN1c1ccc(Cl)cc1	120 to 122 °C
CCOC(=O)C(=O)Nc1cc(Cl)cc(NC(=O)C(=O)OCC)n1	164 to 166 °C
Nc1cc(Br)ccc1C(=O)NCc1ccc(Br)cc1F	143 to 144 °C
Cn1nc(C(F)(F)F)cc1Oc1cc(C#N)cc(-n2ccc(C(F)(F)F)n2)c1	116 to 117 °C
COCc1ccc(Cl)c(C2(C)C(=O)N(Cc3ccc(OC)cc3OC)c3ccc(Cl)cc32)c1 (stereo unspecified)	122 °C
COC(=O)C(O)=CC(=O)c1cn(Cc2ccc(F)cc2)c(=O)n(Cc2ccc(F)cc2)c1=O	171 to 173 °C
CC1(C)Oc2ccc(C#N)cc2[C@@H](Nc2cc(Cl)ncn2)[C@@H]1O (relative stereo)	204 to 208 °C
CC(C)Cn1c(=O)n(C)c(=O)c2c(Sc3ccc(N)cn3)c(Cc3cccc4ccccc34)sc21	208 to 209 °C
N#Cc1ncccc1Oc1cccc(F)c1	92 to 93 °C

SMILES	melting point
CCC(=O)N[C@@H](C)C(=O)N1CCC[C@H]1C(=O)NC1CCCCCC1	155 to 156 °C
COc1cc(O)c(C(=O)c2ccccc2)c(Cl)c1	92 to 94 °C
O=c1oc2cc(Cl)cnc2n1CO	137 to 139 °C
Cc1ccc2[nH]c(C(=O)OCc3ccccc3)cc2c1	150 to 152 °C
CN1CCN(C(=O)OC2c3ccccc3C(=O)N2c2ccc3ncccc3n2)CC1 (stereo unspecified)	170 to 171 °C
CCOC(=O)c1cc(NS(=O)(=O)c2cccnc2)ccc1Oc1cncc(Cl)c1	120 to 122 °C
CS(=O)(=O)NCc1ccc2[nH]cc(C(=O)C(=O)N3CCCC3)c2c1	235 to 236 °C
Nc1cc(C(=O)O)c(F)c(F)c1F	164 to 166 °C
CNc1ccc([N+](=O)[O-])cc1[N+](=O)[O-]	177 to 178 °C
CCOC(=O)C(=O)C(NC(=O)c1ccccc1)c1ccccc1 (stereo unspecified)	80 to 83 °C
Cc1c(Cc2cccc(C(F)(F)F)c2)sc2c(-c3cc(C(N)=O)ccn3)cccc12	193 to 194 °C
CN1CCC(c2cccc3c2C[C@H](NC(=O)c2ccc(N4CCOCC4)cc2)CC3)CC1	196 to 198 °C
N#CCCN1CCC(C2c3ccccc3C=Cc3ccccc32)CC1	165 to 168 °C
COC(=O)c1ccc(Oc2nn(Cc3ccccc3)c3ccccc23)o1	89 to 91 °C
CS(=O)(=O)Nc1ccc(N2CCC(O)CC2)cc1	126 to 129 °C
CCCOc1ccc(S(=O)(=O)NC)cc1C1=NC(=O)C2=NC=NC2=N1	245 to 246 °C
NC(=O)C(CCCC(NC(=O)OCc1ccccc1)C(=O)O)NC(=O)OCc1ccccc1 (stereo unspecified)	145 to 150 °C
N#CCCn1ccc(NC(N)=NCC(F)(F)F)n1	141 to 142 °C
COc1cccc(CN2CCC3(CC2)CSC2=C(O3)c3ccccc3C(=O)C2=O)c1	129 to 131 °C
CCOC(=O)C1=CCCCC1S(=O)(=O)Nn1cccc1C1CC1 (stereo unspecified)	95 to 96 °C
Cc1cccc(NC(N)=S)n1	188 to 190 °C
O=C1c2ccccc2CS(=O)(=O)N1CCC(c1ccccc1)N1CCOCC1 (stereo unspecified)	130 °C
CCCc1cc(Cl)c2oc(C(=O)OCc3ccccc3)c(C)c2c1O	119 to 120 °C
